Reference: ChEMBL document CHEMBL5212743, “Selectivity Literature for EUbOPEN Chemogenomics Library wave 3” (2023)

How the values were obtained:
[1] = target: Bromodomain-containing protein 1 (Homo sapiens) (UniProt O95696); assay: Selectivity interaction (Bromodomain panel (DSF assay)) EUB0000224e BRD1
[2] = target: Chromatin remodeling regulator CECR2 (Homo sapiens, UniProt Q9BXF3); assay: Selectivity interaction (Bromodomain panel (DSF assay)) EUB0000224e CECR2
[3] = target: Polycomb protein EED (Homo sapiens) (UniProt O75530); assay: Selectivity interaction (Reader proteins panel (DSF assay)) EUB0000034d EED
[4] = target: WD repeat-containing protein 5 (Homo sapiens) (UniProt P61964); assay: Selectivity interaction (Reader proteins panel (DSF assay)) EUB0000034d WDR5
[5] = target: Growth/differentiation factor 2 (Homo sapiens) (UniProt Q9UK05); assay: Selectivity interaction (Reader proteins panel (DSF assay)) EUB0000034d GDF2
Peregrin (Homo sapiens) = Peregrin (Homo sapiens) (UniProt P55201); assay: Selectivity interaction (Reader proteins panel (DSF assay)) EUB0000034d BRPF1
[6] = target: Histone-lysine N-methyltransferase SETD2 (Homo sapiens, UniProt Q9BYW2); assay: Selectivity interaction (Methyltransferase panel) EUB0000034d SETD2; conditions: at 10 µM
[7] = target: E3 ubiquitin-protein ligase UHRF1 (Homo sapiens) (UniProt Q96T88); assay: Selectivity interaction (Reader proteins panel (DSF assay)) EUB0000034d UHRF1
[8] = target: AT-rich interactive domain-containing protein 4A (Homo sapiens) (UniProt P29374); assay: Selectivity interaction (Reader proteins panel (DSF assay)) EUB0000034d ARID4A
[9] = target: RNA-binding protein FXR1 (Homo sapiens) (UniProt P51114); assay: Selectivity interaction (Reader proteins panel (DSF assay)) EUB0000034d FXR1
[10] = target: Staphylococcal nuclease domain-containing protein 1 (Homo sapiens) (UniProt Q7KZF4); assay: Selectivity interaction (Reader proteins panel (DSF assay)) EUB0000034d SND1
[11] = target: Tudor domain-containing protein 3 (Homo sapiens) (UniProt Q9H7E2); assay: Selectivity interaction (Reader proteins panel (DSF assay)) EUB0000034d TDRD3
[12] = target: T1, Cyclin-G-associated kinase (Homo sapiens) (UniProt O14976); assay: Selectivity interaction (KinomeScan (DiscoverX)) EUB0000691a GAK; conditions: at 10 µM
T1 sequence (whole entry): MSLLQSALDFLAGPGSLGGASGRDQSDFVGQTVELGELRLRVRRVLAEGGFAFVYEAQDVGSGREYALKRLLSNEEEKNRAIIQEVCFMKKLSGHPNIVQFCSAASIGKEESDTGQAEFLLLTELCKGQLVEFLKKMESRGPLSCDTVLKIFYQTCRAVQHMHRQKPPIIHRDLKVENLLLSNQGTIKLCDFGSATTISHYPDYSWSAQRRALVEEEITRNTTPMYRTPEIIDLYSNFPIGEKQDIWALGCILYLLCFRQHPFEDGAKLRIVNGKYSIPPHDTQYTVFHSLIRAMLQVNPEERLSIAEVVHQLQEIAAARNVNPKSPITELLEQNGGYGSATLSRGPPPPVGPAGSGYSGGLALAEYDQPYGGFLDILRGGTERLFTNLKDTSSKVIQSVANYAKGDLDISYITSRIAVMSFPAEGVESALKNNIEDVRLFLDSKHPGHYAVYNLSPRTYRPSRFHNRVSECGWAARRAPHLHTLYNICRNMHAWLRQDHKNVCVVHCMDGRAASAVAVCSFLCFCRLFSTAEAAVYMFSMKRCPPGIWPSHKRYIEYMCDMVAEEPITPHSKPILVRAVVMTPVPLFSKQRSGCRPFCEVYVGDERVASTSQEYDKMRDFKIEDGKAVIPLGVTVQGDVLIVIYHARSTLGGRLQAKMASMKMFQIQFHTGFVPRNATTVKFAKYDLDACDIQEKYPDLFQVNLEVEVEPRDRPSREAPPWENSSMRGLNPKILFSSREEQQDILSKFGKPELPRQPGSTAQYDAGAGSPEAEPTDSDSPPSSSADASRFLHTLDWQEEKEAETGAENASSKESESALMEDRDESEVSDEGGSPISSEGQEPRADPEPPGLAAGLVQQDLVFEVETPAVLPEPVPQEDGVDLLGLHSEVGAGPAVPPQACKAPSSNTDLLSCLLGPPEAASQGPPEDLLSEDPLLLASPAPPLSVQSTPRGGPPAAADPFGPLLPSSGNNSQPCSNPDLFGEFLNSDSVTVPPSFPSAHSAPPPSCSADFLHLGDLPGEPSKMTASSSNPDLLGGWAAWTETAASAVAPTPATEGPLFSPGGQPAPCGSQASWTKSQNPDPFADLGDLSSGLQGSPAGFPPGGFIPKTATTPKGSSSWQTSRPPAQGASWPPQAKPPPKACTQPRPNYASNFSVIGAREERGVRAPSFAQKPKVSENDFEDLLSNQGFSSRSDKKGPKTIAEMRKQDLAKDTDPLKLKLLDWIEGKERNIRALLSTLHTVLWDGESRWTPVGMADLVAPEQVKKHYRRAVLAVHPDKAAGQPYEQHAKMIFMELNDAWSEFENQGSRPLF

[13] = target: Serine/threonine-protein kinase 16 (Homo sapiens, UniProt O75716); assay: Selectivity interaction (KinomeScan (DiscoverX)) EUB0000691a STK16; conditions: at 10 µM
[14] = target: Dual specificity protein kinase TTK (Homo sapiens) (UniProt P33981); assay: Selectivity interaction (KinomeScan (DiscoverX)) EUB0000691a TTK; conditions: at 10 µM
[15] = target: Dual specificity mitogen-activated protein kinase kinase 4 (Homo sapiens) (UniProt P45985); assay: Selectivity interaction (KinomeScan (DiscoverX)) EUB0000691a MAP2K4; conditions: at 10 µM
[16] = target: Tyrosine-protein kinase JAK1 (Homo sapiens, UniProt P23458); assay: Selectivity interaction (KinomeScan (DiscoverX)) EUB0000691a JAK1@kinase 1; conditions: at 10 µM
[17] = target: Phosphatidylinositol 3-kinase C2 domain-containing subunit gamma (Homo sapiens) (UniProt O75747); assay: Selectivity interaction (KinomeScan (DiscoverX)) EUB0000691a PIK3C2G; conditions: at 10 µM

Sequence of Chromatin remodeling regulator CECR2 (Q9BXF3 whole entry, looked up): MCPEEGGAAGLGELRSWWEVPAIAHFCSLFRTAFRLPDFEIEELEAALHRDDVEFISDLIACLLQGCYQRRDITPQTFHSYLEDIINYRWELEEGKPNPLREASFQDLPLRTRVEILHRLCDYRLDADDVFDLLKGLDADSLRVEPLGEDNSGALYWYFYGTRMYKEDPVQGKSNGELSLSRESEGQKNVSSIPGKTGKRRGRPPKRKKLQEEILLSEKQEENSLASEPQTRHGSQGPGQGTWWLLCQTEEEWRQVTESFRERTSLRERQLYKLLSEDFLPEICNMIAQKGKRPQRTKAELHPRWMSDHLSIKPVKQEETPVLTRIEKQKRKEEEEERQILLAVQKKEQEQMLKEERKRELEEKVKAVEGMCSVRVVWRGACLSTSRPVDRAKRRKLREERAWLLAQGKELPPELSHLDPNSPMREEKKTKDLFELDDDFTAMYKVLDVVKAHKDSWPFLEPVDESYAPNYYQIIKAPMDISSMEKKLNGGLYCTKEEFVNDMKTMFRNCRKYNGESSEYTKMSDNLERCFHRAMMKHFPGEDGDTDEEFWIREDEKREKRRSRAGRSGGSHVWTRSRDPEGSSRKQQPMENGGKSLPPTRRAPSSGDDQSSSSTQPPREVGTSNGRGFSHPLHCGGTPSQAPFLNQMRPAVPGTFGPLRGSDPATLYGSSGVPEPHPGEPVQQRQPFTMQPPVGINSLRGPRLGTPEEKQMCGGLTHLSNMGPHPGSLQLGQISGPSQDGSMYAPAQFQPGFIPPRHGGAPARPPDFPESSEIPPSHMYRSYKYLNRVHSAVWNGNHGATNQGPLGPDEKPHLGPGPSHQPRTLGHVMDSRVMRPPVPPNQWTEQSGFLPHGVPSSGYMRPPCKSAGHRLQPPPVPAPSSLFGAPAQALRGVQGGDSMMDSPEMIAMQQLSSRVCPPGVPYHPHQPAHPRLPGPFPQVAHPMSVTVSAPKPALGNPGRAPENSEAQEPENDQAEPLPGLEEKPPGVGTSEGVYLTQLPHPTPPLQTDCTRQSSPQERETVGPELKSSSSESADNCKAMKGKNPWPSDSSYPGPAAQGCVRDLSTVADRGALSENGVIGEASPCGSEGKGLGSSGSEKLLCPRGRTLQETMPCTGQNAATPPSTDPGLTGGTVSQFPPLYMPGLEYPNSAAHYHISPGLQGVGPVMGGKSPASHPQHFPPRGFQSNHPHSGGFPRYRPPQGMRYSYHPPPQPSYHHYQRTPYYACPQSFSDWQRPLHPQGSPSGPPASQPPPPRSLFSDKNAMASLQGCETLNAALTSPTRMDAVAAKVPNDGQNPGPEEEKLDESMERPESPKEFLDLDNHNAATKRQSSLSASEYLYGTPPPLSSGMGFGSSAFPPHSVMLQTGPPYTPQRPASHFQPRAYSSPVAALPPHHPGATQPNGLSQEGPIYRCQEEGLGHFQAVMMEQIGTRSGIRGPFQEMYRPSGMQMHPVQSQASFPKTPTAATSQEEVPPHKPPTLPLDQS
Sequence of Histone-lysine N-methyltransferase SETD2 (Q9BYW2 whole entry): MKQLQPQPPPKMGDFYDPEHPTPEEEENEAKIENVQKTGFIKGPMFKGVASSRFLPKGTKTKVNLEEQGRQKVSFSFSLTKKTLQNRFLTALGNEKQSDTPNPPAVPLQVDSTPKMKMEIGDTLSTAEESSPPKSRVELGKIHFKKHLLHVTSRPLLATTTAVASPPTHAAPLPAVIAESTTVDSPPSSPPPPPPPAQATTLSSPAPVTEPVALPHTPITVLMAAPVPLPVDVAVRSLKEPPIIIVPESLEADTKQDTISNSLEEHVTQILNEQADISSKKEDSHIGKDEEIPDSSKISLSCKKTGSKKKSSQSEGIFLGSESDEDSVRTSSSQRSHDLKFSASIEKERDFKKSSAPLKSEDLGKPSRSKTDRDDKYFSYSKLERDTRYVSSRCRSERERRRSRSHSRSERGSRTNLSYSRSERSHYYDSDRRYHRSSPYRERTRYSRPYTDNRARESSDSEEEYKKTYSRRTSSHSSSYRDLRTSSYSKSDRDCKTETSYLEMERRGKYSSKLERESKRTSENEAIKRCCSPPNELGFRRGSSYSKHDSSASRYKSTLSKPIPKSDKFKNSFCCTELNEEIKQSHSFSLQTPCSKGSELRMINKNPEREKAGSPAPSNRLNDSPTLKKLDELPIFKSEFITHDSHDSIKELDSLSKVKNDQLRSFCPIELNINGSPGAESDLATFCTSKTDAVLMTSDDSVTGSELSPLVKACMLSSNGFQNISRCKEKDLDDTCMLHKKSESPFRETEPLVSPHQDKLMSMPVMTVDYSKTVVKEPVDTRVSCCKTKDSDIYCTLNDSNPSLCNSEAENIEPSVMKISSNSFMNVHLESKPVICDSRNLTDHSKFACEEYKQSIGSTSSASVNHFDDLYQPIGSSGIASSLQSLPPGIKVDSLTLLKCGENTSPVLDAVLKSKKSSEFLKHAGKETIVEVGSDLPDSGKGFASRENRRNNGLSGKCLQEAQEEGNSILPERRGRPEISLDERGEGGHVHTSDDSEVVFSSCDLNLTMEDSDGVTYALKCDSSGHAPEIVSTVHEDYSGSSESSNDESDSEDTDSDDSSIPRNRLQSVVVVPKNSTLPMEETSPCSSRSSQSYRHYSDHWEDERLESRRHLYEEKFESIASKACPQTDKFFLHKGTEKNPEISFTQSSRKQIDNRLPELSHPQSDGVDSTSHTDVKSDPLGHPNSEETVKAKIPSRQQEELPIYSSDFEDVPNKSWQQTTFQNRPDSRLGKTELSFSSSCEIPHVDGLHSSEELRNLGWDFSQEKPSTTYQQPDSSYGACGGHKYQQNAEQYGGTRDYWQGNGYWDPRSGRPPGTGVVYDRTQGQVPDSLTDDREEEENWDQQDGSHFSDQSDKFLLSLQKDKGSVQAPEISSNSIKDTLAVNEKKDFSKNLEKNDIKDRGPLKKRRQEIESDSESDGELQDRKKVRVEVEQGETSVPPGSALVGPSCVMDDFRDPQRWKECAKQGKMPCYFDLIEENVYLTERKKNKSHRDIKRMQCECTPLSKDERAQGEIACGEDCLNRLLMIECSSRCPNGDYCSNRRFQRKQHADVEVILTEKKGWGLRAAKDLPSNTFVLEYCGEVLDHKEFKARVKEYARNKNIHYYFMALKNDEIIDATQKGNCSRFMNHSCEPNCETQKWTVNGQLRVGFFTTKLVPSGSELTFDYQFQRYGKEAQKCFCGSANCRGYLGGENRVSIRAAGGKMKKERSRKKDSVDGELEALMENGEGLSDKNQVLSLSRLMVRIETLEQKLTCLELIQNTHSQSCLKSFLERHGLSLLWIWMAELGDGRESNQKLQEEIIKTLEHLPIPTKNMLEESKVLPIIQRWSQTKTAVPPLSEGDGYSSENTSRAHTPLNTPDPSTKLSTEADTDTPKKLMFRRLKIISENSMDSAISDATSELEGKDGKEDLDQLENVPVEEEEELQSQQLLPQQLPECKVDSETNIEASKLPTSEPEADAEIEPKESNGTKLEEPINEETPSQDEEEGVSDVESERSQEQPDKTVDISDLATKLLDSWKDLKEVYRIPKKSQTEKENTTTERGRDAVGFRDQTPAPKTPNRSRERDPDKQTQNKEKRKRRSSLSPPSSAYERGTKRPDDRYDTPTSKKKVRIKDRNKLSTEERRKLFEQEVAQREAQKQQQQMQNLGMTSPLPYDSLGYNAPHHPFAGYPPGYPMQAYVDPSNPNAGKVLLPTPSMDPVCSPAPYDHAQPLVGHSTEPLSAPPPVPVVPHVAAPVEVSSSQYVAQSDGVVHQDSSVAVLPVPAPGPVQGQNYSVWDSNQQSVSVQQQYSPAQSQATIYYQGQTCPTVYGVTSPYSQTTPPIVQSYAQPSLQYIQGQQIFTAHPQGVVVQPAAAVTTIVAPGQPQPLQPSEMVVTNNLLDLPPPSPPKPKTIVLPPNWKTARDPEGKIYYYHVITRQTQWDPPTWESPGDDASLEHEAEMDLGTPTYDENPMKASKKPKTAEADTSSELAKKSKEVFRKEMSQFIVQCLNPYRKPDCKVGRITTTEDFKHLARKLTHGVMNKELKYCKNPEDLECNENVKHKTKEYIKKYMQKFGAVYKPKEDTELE
Sequence of Dual specificity protein kinase TTK (Homo sapiens) (P33981 whole entry): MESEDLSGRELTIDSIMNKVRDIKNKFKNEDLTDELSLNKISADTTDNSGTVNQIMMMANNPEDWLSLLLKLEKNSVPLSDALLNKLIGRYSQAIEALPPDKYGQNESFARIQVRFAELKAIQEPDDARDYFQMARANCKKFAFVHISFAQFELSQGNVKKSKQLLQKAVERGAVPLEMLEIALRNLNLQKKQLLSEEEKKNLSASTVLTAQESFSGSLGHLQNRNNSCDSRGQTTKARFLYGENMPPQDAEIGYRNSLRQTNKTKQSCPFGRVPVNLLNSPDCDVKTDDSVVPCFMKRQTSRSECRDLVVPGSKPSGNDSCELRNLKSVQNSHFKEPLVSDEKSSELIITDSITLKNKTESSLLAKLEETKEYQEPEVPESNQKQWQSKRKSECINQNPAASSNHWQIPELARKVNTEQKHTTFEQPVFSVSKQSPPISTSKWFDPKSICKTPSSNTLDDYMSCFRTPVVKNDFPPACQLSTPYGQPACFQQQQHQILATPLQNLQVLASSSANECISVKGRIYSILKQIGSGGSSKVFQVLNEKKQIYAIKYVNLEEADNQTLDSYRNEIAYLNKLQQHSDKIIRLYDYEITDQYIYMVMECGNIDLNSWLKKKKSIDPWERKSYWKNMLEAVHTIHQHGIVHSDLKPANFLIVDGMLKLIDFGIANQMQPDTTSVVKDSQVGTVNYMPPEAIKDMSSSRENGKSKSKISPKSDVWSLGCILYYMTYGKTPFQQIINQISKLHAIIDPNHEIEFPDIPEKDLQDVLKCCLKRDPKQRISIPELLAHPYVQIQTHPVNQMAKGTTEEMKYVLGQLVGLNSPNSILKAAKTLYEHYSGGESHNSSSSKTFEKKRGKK

For `COc1ccccc1C(=O)Nc1cc2c(cc1N1CCCC1)n(C)c(=O)n2C`, the dTm [1] was 2 K and the dTm [2] was 2 K.

For `CC(C)Oc1ccc(-c2c[nH]cc2CN(C)CCN)cc1`, the dTm [3] was < 2 K, the dTm [4] was < 2 K and the dTm [5] was < 2 K. The dTm (Peregrin (Homo sapiens)) was < 2 K, the % activity remaining [6] was 80% and the dTm [7] was < 2 K. For the same compound, the dTm [8] was < 2 K, the dTm [9] was < 2 K and the dTm [10] was < 2 K. For the same compound, the dTm [11] was < 2 K.

For `COc1ncc(-c2ccc3nccc(-c4ccnnc4)c3c2)cc1NS(=O)(=O)c1ccc(F)cc1F`, the % of control [12] was 0.2%, the % of control [13] was 3.4% and the % of control [14] was 4%. The % of control [15] was 5.9%, the % of control [16] was 2.2% and the % of control [17] was 4.4%.
